Values of other authors as cited in patent US20130178535A1, “Acetaminophen Composition” (B. Braun Melsungen AG, priority 2010, published 2013).

CC(=O)Nc1ccc(O)cc1 [paracetamol, N-(4-hydroxyphenyl)ethanamide]
pH at which breakdown (hydrolysis) in aqueous solution is minimal: ~6
